From patent US9809574B2, “Isoindoline or isoquinoline compounds, a process for their preparation and pharmaceutical compositions containing them” (LES LABORATOIRES SERVIER, priority 2013, dated 2017)
Structures can show the parent of a compound that is named as a salt.

Key:
Bcl-2 protein = Bcl-2 protein (histag-Bcl-2, UniProtKB P10415) (Homo sapiens (Human), UniProt P10415); experiment: Inhibition of Bcl-2 by the fluorescence polarisation technique; type: binding; conditions: for IC50: fluorescence polarisation test, incubation for 2 hours, read-out: IC50 (nM) Bcl-2 FP
Chain of Bcl-2 protein (P10415 whole entry): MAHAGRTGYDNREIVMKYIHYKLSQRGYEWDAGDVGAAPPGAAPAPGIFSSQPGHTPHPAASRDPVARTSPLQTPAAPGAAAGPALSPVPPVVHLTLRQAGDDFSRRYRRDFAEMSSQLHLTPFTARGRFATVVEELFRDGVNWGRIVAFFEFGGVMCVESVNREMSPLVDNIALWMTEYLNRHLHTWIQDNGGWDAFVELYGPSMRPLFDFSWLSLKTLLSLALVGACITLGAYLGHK
From the text: For partial inhibitors, the percentage fluorescence polarisation inhibition for a given concentration of the test compound is indicated.

[1] = system: RS4; 11 leukaemia cell line; experiment: In vitro cytotoxicity, Microculture Tetrazolium Assay (MTT); type: cell-based; conditions: Homo sapiens, 11 cells exposed for 48 hours
Method: The cytotoxicity studies were carried out on the RS4; 11 leukaemia cell line and on H146 small Cell Lung Carcinoma cell line. The cells are distributed onto microplates and exposed to the test compounds for 48 hours. The cell viability is then quantified by a colorimetric assay, the Microculture Tetrazolium Assay (Cancer Res., 1987, 47, 939-942).

| IC50 (Bcl-2 protein) | inhibition at 3.3 µM (Bcl-2 protein; partial inhibitor, concentration of test compound 3.3 μM, read-out: percentage fluorescence polarisation inhibition (Bcl-2 FP)) | Structure (SMILES) | IC50 [1] |
| --- | --- | --- | --- |
| 13 nM |  | CN(C(=O)c1cc(-c2cc3c(cc2C(=O)N2Cc4ccccc4C[C@H]2CN2CCOCC2)CN(C(=O)OC(C)(C)C)CC3)n2c1CCCC2)c1ccc(O)cc1 [Example 1, tert-Butyl 6-{1-[(4-hydroxyphenyl)(methyl)carbamoyl]-5,6,7,8-tetrahydroindolizin-3-yl}-7-[(3S)-3-(morpholin-4-ylmethyl)-1,2,3,4-tetrahydroisoquinoline-2-carbonyl]-1,2,3,4-tetrahydroisoquinoline-2-carboxylate] | 140 nM |
| 397 nM |  | CN(C(=O)c1cc(-c2cc3c(cc2C(=O)N2Cc4ccccc4C[C@H]2CN2CCOCC2)CNCC3)n2c1CCCC2)c1ccc(O)cc1 [Example 2, N-(4-Hydroxyphenyl)-N-methyl-3-{7-[(3S)-3-(morpholin-4-ylmethyl)-1,2,3,4-tetrahydroisoquinoline-2-carbonyl]-1,2,3,4-tetrahydroisoquinolin-6-yl}-5,6,7,8-tetrahydroindolizine-1-carboxamide dihydrochloride] | > 1880 nM |
| 18 nM |  | CN(C(=O)c1cc(-c2cc3c(cc2C(=O)N2Cc4ccccc4C[C@H]2CN2CCOCC2)CN(S(=O)(=O)c2ccccc2)CC3)n2c1CCCC2)c1ccc(O)cc1 [Example 3, 3-[2-(Benzenesulfonyl)-7-[(3S)-3-(morpholin-4-ylmethyl)-1,2,3,4-tetrahydroisoquinoline-2-carbonyl]-1,2,3,4-tetrahydroisoquinolin-6-yl]-N-(4-hydroxyphenyl)-N-methyl-5,6,7,8-tetrahydroindolizine-1-carboxamide] | 236 nM |
| 9.2 nM |  | CN(C(=O)c1cc(-c2cc3c(cc2C(=O)N2Cc4ccccc4C[C@H]2CN2CCOCC2)CN(S(=O)(=O)Cc2ccccc2)CC3)n2c1CCCC2)c1ccc(O)cc1 [Example 4, N-(4-Hydroxyphenyl)-N-methyl-3-{7-[(3S)-3-(morpholin-4-ylmethyl)-1,2,3,4-tetrahydroisoquinoline-2-carbonyl]-2-phenylmethanesulfonyl-1,2,3,4-tetrahydroisoquinolin-6-yl}-5,6,7,8-tetrahydroindolizine-1-carboxamide] | 71 nM |
| 43 nM |  | CN(C(=O)c1cc(-c2cc3c(cc2C(=O)N2Cc4ccccc4C[C@H]2CN2CCOCC2)CN(S(=O)(=O)c2ccc4ccccc4c2)CC3)n2c1CCCC2)c1ccc(O)cc1 [Example 5, N-(4-Hydroxyphenyl)-N-methyl-3-{7-[(3S)-3-(morpholin-4-ylmethyl)-1,2,3,4-tetrahydroisoquinoline-2-carbonyl]-2-(naphthalene-2-sulfonyl)-1,2,3,4-tetrahydroisoquinolin-6-yl}-5,6,7,8-tetrahydroindolizine-1-carboxamide] | 70 nM |
| 95 nM |  | CN(C(=O)c1cc(-c2cc3c(cc2C(=O)N2Cc4ccccc4C[C@H]2CN2CCOCC2)CN(C(=O)OC(C)(C)C)C3)n2c1CCCC2)c1ccc(O)cc1 [Example 6, tert-Butyl 5-{1-[(4-hydroxyphenyl)(methyl)carbamoyl]-5,6,7,8-tetrahydroindolizin-3-yl}-6-[(3S)-3-(morpholin-4-ylmethyl)-1,2,3,4-tetrahydroisoquinoline-2-carbonyl]-2,3-dihydro-1H-isoindole-2-carboxylate] | > 1880 nM |
|  | 72% | CN(C(=O)c1cc(-c2cc3c(cc2C(=O)N2Cc4ccccc4C[C@H]2CN2CCOCC2)CNC3)n2c1CCCC2)c1ccc(O)cc1 [Example 7, N-(4-Hydroxyphenyl)-N-methyl-3-{6-[(3S)-3-(morpholin-4-ylmethyl)-1,2,3,4-tetrahydroisoquinoline-2-carbonyl]-2,3-dihydro-1H-isoindol-5-yl}-5,6,7,8-tetrahydroindolizine-1-carboxamide; dihydrochloride salt] | 1080 nM |
| 7.3 nM |  | CN(C(=O)c1cc(-c2cc3c(cc2C(=O)N2Cc4ccccc4C[C@H]2CN2CCOCC2)CN(C(=O)Cc2ccccc2)C3)n2c1CCCC2)c1ccc(O)cc1 [Example 8, N-(4-Hydroxyphenyl)-N-methyl-3-{6-[(3S)-3-(morpholin-4-ylmethyl)-1,2,3,4-tetrahydroisoquinoline-2-carbonyl]-2-(2-phenylacetyl)-2,3-dihydro-1H-isoindol-5-yl}-5,6,7,8-tetrahydroindolizine-1-carboxamide; hydrochloride salt] | 98 nM |
| 9 nM |  | CN(C(=O)c1cc(-c2cc3c(cc2C(=O)N2Cc4ccccc4C[C@H]2CN2CCOCC2)CN(C(=O)CCc2ccccc2)C3)n2c1CCCC2)c1ccc(O)cc1 [Example 9, N-(4-Hydroxyphenyl)-N-methyl-3-{6-[(3S)-3-(morpholin-4-ylmethyl)-1,2,3,4-tetrahydroisoquinoline-2-carbonyl]-2-(3-phenylpropanoyl)-2,3-dihydro-1H-isoindol-5-yl}-5,6,7,8-tetrahydroindolizine-1-carboxamide hydrochloride] | 125 nM |
| 127 nM |  | C[C@@H]1Cc2ccccc2CN1C(=O)c1cc2c(cc1-c1cc(C(=O)N(C)c3ccc(O)cc3)c3n1CCCC3)CNC2 [Example 10, N-(4-Hydroxyphenyl)-N-methyl-3-{6-[(3R)-3-methyl-1,2,3,4-tetrahydroisoquinoline-2-carbonyl]-2,3-dihydro-1H-isoindol-5-yl}-5,6,7,8-tetrahydroindolizine-1-carboxamide] |  |
| 22 nM |  | CCC(=O)N1Cc2cc(C(=O)N3Cc4ccccc4C[C@H]3CN3CCOCC3)c(-c3cc(C(=O)N(C)c4ccc(O)cc4)c4n3CCCC4)cc2C1 [Example 11, N-(4-Hydroxyphenyl)-N-methyl-3-{6-[(3S)-3-(morpholin-4-ylmethyl)-1,2,3,4-tetrahydroisoquinoline-2-carbonyl]-2-propanoyl-2,3-dihydro-1H-isoindol-5-yl}-5,6,7,8-tetrahydroindolizine-1-carboxamide hydrochloride] | 763 nM |
| 43 nM |  | CN(C(=O)c1cc(-c2cc3c(cc2C(=O)N2Cc4ccccc4C[C@H]2CN2CCOCC2)CN(C(=O)c2ccccc2)C3)n2c1CCCC2)c1ccc(O)cc1 [Example 12, 3-{2-Benzoyl-6-[(3S)-3-(morpholin-4-ylmethyl)-1,2,3,4-tetrahydroisoquinoline-2-carbonyl]-2,3-dihydro-1H-isoindol-5-yl}-N-(4-hydroxyphenyl)-N-methyl-5,6,7,8-tetrahydroindolizine-1-carboxamide hydrochloride] | 759 nM |
| 108 nM |  | C[C@@H]1Cc2ccccc2CN1C(=O)c1cc2c(cc1-c1cc(C(=O)N(C)c3ccc(O)cc3)c3n1CCCC3)CN(C(=O)OC(C)(C)C)C2 [Example 13, tert-Butyl 5-{1-[(4-hydroxyphenyl)(methyl)carbamoyl]-5,6,7,8-tetrahydroindolizin-3-yl}-6-[(3R)-3-methyl-1,2,3,4-tetrahydroisoquinoline-2-carbonyl]-2,3-dihydro-1H-isoindole-2-carboxylate] | 729 nM |
| 7.9 nM |  | C[C@@H]1Cc2ccccc2CN1C(=O)c1cc2c(cc1-c1cc(C(=O)N(C)c3ccc(O)cc3)c3n1CCCC3)CN(C(=O)Cc1ccccc1)C2 [Example 14, N-(4-Hydroxyphenyl)-N-methyl-3-{6-[(3R)-3-methyl-1,2,3,4-tetrahydroisoquinoline-2-carbonyl]-2-(2-phenylacetyl)-2,3-dihydro-1H-isoindol-5-yl}-5,6,7,8-tetrahydroindolizine-1-carboxamide] | 27 nM |
| 19 nM |  | C[C@@H]1Cc2ccccc2CN1C(=O)c1cc2c(cc1-c1cc(C(=O)N(C)c3ccc(O)cc3)c3n1CCCC3)CN(C(=O)CCc1ccccc1)C2 [Example 15, N-(4-Hydroxyphenyl)-N-methyl-3-{6-[(3R)-3-methyl-1,2,3,4-tetrahydroisoquinoline-2-carbonyl]-2-(3-phenylpropanoyl)-2,3-dihydro-1H-isoindol-5-yl}-5,6,7,8-tetrahydroindolizine-1-carboxamide] | 93 nM |
| 83 nM |  | C[C@@H]1Cc2ccccc2CN1C(=O)c1cc2c(cc1-c1cc(C(=O)N(C)c3ccc(O)cc3)c3n1CCCC3)CCNC2 [Example 27, N-(4-Hydroxyphenyl)-N-methyl-3-{7-[(3R)-3-methyl-1,2,3,4-tetrahydroisoquinoline-2-carbonyl]-1,2,3,4-tetrahydroisoquinolin-6-yl}-5,6,7,8-tetrahydroindolizine-1-carboxamide; trifluoroacetic acid salt] |  |
| 78 nM |  | Cc1c(C(=O)N(C)c2ccc(O)cc2)cc(-c2cc3c(cc2C(=O)N2Cc4ccccc4C[C@H]2C)CN(C(=O)CN2CCCCC2)C3)n1C [Example 176, 5-{2-[2-(1-Piperidyl)acetyl]-6-[(3R)-3-methyl-1,2,3,4-tetrahydroisoquinoline-2-carbonyl]-2,3-dihydro-1H-isoindol-5-yl}-N-(4-hydroxyphenyl)-N,1,2-trimethyl-1H-pyrrole-3-carboxamide] |  |

| Structure (SMILES) | IC50 (Bcl-2 protein) | inhibition at 3.3 µM (Bcl-2 protein; partial inhibitor, concentration of test compound 3.3 μM, read-out: percentage fluorescence polarisation inhibition (Bcl-2 FP)) | IC50 [1] |
| --- | --- | --- | --- |
| CN(C(=O)c1cc(-c2cc3c(cc2C(=O)N2Cc4ccccc4C[C@H]2CN2CCOCC2)CN(C(=O)Oc2ccccc2)C3)n2c1CCCC2)c1ccc(O)cc1 [Example 16, Phenyl 5-{1-[(4-hydroxyphenyl)(methyl)carbamoyl]-5,6,7,8-tetrahydroindolizin-3-yl}-6-[(3S)-3-(morpholin-4-ylmethyl)-1,2,3,4-tetrahydroisoquinoline-2-carbonyl]-2,3-dihydro-1H-isoindole-2-carboxylate hydrochloride] | 6 nM |  | 27 nM |
| Cc1c(C(=O)N(C)c2ccc(O)cc2)cc(-c2cc3c(cc2C(=O)N2Cc4ccccc4C[C@H]2C)CN(C(=O)Oc2ccc(OCCN(C)C)cc2)CC3)n1C [Example 476, 4-[2-(Dimethylamino)ethoxy]phenyl 6-{4-[(4-hydroxyphenyl)(methyl)carbamoyl]-1,5-dimethyl-1H-pyrrol-2-yl}-7-[(3R)-3-methyl-1,2,3,4-tetrahydroisoquinoline-2-carbonyl]-1,2,3,4-tetrahydroisoquinoline-2-carboxylate] | 1.8 nM |  |  |
